Reference: patent US20130217913A1, “Antimalarial Drug Comprising Alaremycin or Derivative Thereof as Active Ingredient” (SBI Pharmaceuticals Co., Ltd., priority 2010, published 2013)

Assays:
[1] = test system: human malaria parasites; assay: [3H]-hypoxanthine incorporation (de novo nucleic acid synthesis) in infected human red blood cells, Example 2; assay type: cell-based; settings: for specific radioactivity incorporation, [^3H]-hypoxanthine: 25 hours, value at 0.1 μM set to 100%
Protocol: Human red blood cells infected at an infection rate of 2% with ring-stage human malaria parasites were cultured in RPMI1640 medium containing AlbuMAX-II at 37° C. and a hematocrit of 4%. 50 μL of a medium containing Alaremycin or any of the other compounds shown in Table 2 was mixed with 50 μL of the culture to the indicated concentrations, to which [^3H]-hypoxanthine was then added, followed by culture in a 96-well plate at 37° C. The repeat number was 2 for each concentration. After 25 hours, they were examined and the amount β-rays released from [^3H]-hypoxanthine incorporated into a nucleic acid with de novo nucleic acid synthesis was measured using a scintillation counter. The averages of the measured values were calculated, and the specific radioactivity incorporation was calculated by setting the measured value in the experiment for which each compound is contained at a final concentration of 0.1 μM, to 100%.

[2] = biological target: porphobilinogen synthase (PBGS) (Pseudomonas aeruginosa, UniProt Q59643); settings: Non-patent Document 3; cited from earlier work
porphobilinogen synthase (PBGS), sequence (Q59643 whole entry): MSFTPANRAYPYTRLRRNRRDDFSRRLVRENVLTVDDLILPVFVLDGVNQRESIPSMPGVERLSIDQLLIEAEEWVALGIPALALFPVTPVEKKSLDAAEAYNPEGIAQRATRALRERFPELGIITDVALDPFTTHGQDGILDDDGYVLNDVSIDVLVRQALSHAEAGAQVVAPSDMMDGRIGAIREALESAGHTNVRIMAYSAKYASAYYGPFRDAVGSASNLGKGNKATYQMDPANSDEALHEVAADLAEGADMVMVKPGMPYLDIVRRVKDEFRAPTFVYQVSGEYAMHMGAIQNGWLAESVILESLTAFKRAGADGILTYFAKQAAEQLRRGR

[3] = test system: human malaria parasites; assay: [3H]-hypoxanthine incorporation (de novo nucleic acid synthesis) in infected human red blood cells, Example 1; assay type: cell-based; settings: for Specific Radioactivity Incorporation (%) [^3H]-Hypoxanthine: 25 hours, value at 0.01 μM set to 100%
Protocol: (§1) Human red blood cells infected at an infection rate of 2% with ring-stage human malaria parasites were cultured in RPMI1640 medium containing AlbuMAX-II (Invitrogen) at 37° C. and a hematocrit of 4%. 50 μL of the culture was mixed with 50 μL of a medium containing Alaremycin to the concentrations shown in Table 1, to which [^3H]-hypoxanthine and [^14C]-isoleucine isoleucine were then added, followed by culture in a 96-well plate at 37° C. The repeat number was 2 for each concentration. After 25 hours, they were examined and the amount of (3-rays released from [^3H]-hypoxanthine incorporated into a nucleic acid with de novo nucleic acid synthesis or from [^14C]-isoleucine incorporated into a protein with de novo protein synthesis was measured using a scintillation counter. The averages of the measured values were calculated, and the specific radioactivity incorporation was calculated by setting the measured value in the experiment for which Alaremycin was contained at a final concentration of 0.01 μM, to 100%. The results are shown in Table 1.

[4] = test system: Pseudomonas aeruginosa; settings: Non-patent Document 3; cited from earlier work
[5] = test system: Escherichia coli; settings: Non-patent Documents 2, 3; cited from earlier work
[6] = test system: human malaria parasites; assay: [14C]-isoleucine incorporation (de novo protein synthesis) in infected human red blood cells, Example 1; assay type: cell-based; settings: 25 hours, value at 0.01 μM set to 100%
Protocol: as §1

## CC(=O)CC(=O)CCC(=O)O [Succinylacetone, 4,6-dioxoheptanoic acid]
[1]; 0.1 μM
  specific radioactivity incorporation, [^3H]-hypoxanthine: 100%
[1]; 1 μM
  specific radioactivity incorporation, [^3H]-hypoxanthine: 94.4%
[1]; 5 μM
  specific radioactivity incorporation, [^3H]-hypoxanthine: 94.3%
[1]; 10 μM
  specific radioactivity incorporation, [^3H]-hypoxanthine: 94.7%
[1]; 50 μM
  specific radioactivity incorporation, [^3H]-hypoxanthine: 99.8%
[1]; 100 μM
  specific radioactivity incorporation, [^3H]-hypoxanthine: 90.9%
[1]; 500 μM
  specific radioactivity incorporation, [^3H]-hypoxanthine: 94.4%
[1]; 1000 μM
  specific radioactivity incorporation, [^3H]-hypoxanthine: 88.6%
[1]; 5000 μM
  specific radioactivity incorporation, [^3H]-hypoxanthine: 58.8%
[1]; 10000 μM
  specific radioactivity incorporation, [^3H]-hypoxanthine: 21.4%

## NCC(=O)CCC(=O)O [5-Aminolevulinic acid, 5-aminolevulinic acid]
[1]; 0.1 μM
  specific radioactivity incorporation, [^3H]-hypoxanthine: 100%
[1]; 1 μM
  specific radioactivity incorporation, [^3H]-hypoxanthine: 102.7%
[1]; 5 μM
  specific radioactivity incorporation, [^3H]-hypoxanthine: 108.5%
[1]; 10 μM
  specific radioactivity incorporation, [^3H]-hypoxanthine: 104.4%
[1]; 50 μM
  specific radioactivity incorporation, [^3H]-hypoxanthine: 97.3%
[1]; 100 μM
  specific radioactivity incorporation, [^3H]-hypoxanthine: 101.2%

## C=C(NC(C)=O)C(=O)CCC(=O)O [Alaremycin, 5-acetamido-4-oxo-5-hexenoic acid]
[1]; 0.1 μM
  specific radioactivity incorporation, [^3H]-hypoxanthine: 100%
[1]; 1 μM
  specific radioactivity incorporation, [^3H]-hypoxanthine: 100.5%
[1]; 5 μM
  specific radioactivity incorporation, [^3H]-hypoxanthine: 90.7%
[1]; 10 μM
  specific radioactivity incorporation, [^3H]-hypoxanthine: 83.8%
[1]; 50 μM
  specific radioactivity incorporation, [^3H]-hypoxanthine: 2.8%
[1]; 100 μM
  specific radioactivity incorporation, [^3H]-hypoxanthine: 1.6%
[1]; compared to succinylacetone and 4,7-dioxosebacic acid
  inhibition of nucleic acid metabolism in human malaria parasites (in words): sufficiently inhibit nucleic acid metabolism in human malaria parasites in a significantly low concentration
[2]
  inhibition of porphobilinogen synthase (in words): act as an inhibitor of porphobilinogen synthase (PBGS)
[3]; 0.01 μM
  Specific Radioactivity Incorporation (%) [^3H]-Hypoxanthine: 100%
[3]; 0.1 μM
  Specific Radioactivity Incorporation (%) [^3H]-Hypoxanthine: 100.4%
[3]; 1 μM
  Specific Radioactivity Incorporation (%) [^3H]-Hypoxanthine: 92.8%
[3]; 5 μM
  Specific Radioactivity Incorporation (%) [^3H]-Hypoxanthine: 84.8%
[3]; 10 μM
  Specific Radioactivity Incorporation (%) [^3H]-Hypoxanthine: 66.8%
[3]; 50 μM
  Specific Radioactivity Incorporation (%) [^3H]-Hypoxanthine: 2.8%
[3]; 100 μM
  Specific Radioactivity Incorporation (%) [^3H]-Hypoxanthine: 1.5%
[3]; 200 μM
  Specific Radioactivity Incorporation (%) [^3H]-Hypoxanthine: 1.1%
[3]; Homo sapiens, Erythrocyte, 15 μM, rough statement for both [^3H]-hypoxanthine and [^14C]-isoleucine, read-out: inhibition of radioactivity incorporation
  inhibition at 15 µM: ~50%
[3]; Homo sapiens, Erythrocyte, 50 μM, rough statement for both [^3H]-hypoxanthine and [^14C]-isoleucine, read-out: inhibition of radioactivity incorporation
  inhibition at 50 µM: ≥ 95%
[3]; measured as in Example 1, both nucleic acid and protein synthesis
  inhibition of nucleic acid metabolism and protein synthesis in human malaria parasites (in words): inhibited by Alaremycin in a concentration-dependent manner
[4]
  antibacterial activity (in words): has antibacterial activities
[5]
  antibacterial activity (in words): has antibacterial activities
[6]; 0.01 μM
  Specific Radioactivity Incorporation (%) [^14C]-Isoleucine: 100%
[6]; 0.1 μM
  Specific Radioactivity Incorporation (%) [^14C]-Isoleucine: 93.3%
[6]; 1 μM
  Specific Radioactivity Incorporation (%) [^14C]-Isoleucine: 88.8%
[6]; 5 μM
  Specific Radioactivity Incorporation (%) [^14C]-Isoleucine: 84.7%
[6]; 10 μM
  Specific Radioactivity Incorporation (%) [^14C]-Isoleucine: 64.8%
[6]; 50 μM
  Specific Radioactivity Incorporation (%) [^14C]-Isoleucine: 3.6%
[6]; 100 μM
  Specific Radioactivity Incorporation (%) [^14C]-Isoleucine: 2.1%
[6]; 200 μM
  Specific Radioactivity Incorporation (%) [^14C]-Isoleucine: 1%

## O=C(O)CCC(=O)CCC(=O)CCC(=O)O [4,7-Dioxosebacic acid, 4,7-dioxosebacic acid]
[1]; 0.1 μM
  specific radioactivity incorporation, [^3H]-hypoxanthine: 100%
[1]; 1 μM
  specific radioactivity incorporation, [^3H]-hypoxanthine: 110.3%
[1]; 5 μM
  specific radioactivity incorporation, [^3H]-hypoxanthine: 106.9%
[1]; 10 μM
  specific radioactivity incorporation, [^3H]-hypoxanthine: 103.4%
[1]; 50 μM
  specific radioactivity incorporation, [^3H]-hypoxanthine: 108%
[1]; 100 μM
  specific radioactivity incorporation, [^3H]-hypoxanthine: 102.1%
[1]; 500 μM
  specific radioactivity incorporation, [^3H]-hypoxanthine: 106.8%
[1]; 1000 μM
  specific radioactivity incorporation, [^3H]-hypoxanthine: 100.1%
[1]; 5000 μM
  specific radioactivity incorporation, [^3H]-hypoxanthine: 100%
[1]; 10000 μM
  specific radioactivity incorporation, [^3H]-hypoxanthine: 97.1%
